From ChEMBL document CHEMBL1158861, “Zanhasaponins A and B, antiphospholipase A2 saponins from an antiinflammatory extract of Zanha africana root bark” (J Nat Prod, 1997)

How the values were obtained:
[1] = molecular target: Acidic phospholipase A2 2 (Naja naja, UniProt P15445); experiment: Inhibition of Naja Naja PLA2
[2] = species: Mus musculus; experiment: Effect on oxazolone-induced delayed type hypersensitivity in Swiss mouse assessed as reduction in ear thickness at 0.05 mg/ear after 96 hrs; type: functional; design: scale not given: the % may be the effect or the level left
[3] = species: Mus musculus; experiment: Effect on oxazolone-induced delayed type hypersensitivity in Swiss mouse assessed as reduction in ear thickness at 0.05 mg/ear after 24 hrs; type: functional; design: scale not given: the % may be the effect or the level left
[4] = test system: Mus musculus; experiment: Antiinflammatory activity against TPA-induced ear edema in Swiss mouse assessed as reduction in ear thickness at 0.05 mg/ear after 10 days; type: functional; design: scale not given: the % may be the effect or the level left
[5] = species: Mus musculus; experiment: Effect on oxazolone-induced delayed type hypersensitivity in Swiss mouse assessed as reduction in ear thickness at 0.05 mg/ear after 102 hrs; type: functional; design: scale not given: the % may be the effect or the level left
[6] = species: Mus musculus; experiment: Effect on oxazolone-induced delayed type hypersensitivity in Swiss mouse assessed as reduction in ear thickness at 0.05 mg/ear after 48 hrs; type: functional; design: scale not given: the % may be the effect or the level left
[7] = species: Mus musculus; experiment: Effect on oxazolone-induced delayed type hypersensitivity in Swiss mouse assessed as reduction in ear thickness at 0.05 mg/ear after 72 hrs; type: functional; design: scale not given: the % may be the effect or the level left
[8] = test system: Mus musculus; experiment: Antiinflammatory activity against Arachidonic acid-induced ear edema in Swiss mouse assessed as reduction in ear thickness at 2 mg/ear; type: functional; design: scale not given: the % may be the effect or the level left
[9] = molecular target: Acidic phospholipase A2 2 (Naja naja) (UniProt P15445); experiment: Inhibition of Naja Naja PLA2 at […]
[10] = molecular target: Acidic phospholipase A2 2 (Naja naja) (UniProt P15445); details: 1.3 nM
Description: Inhibition of Naja Naja PLA2 at 1.3 nM

Chain of Acidic phospholipase A2 2 (P15445 whole entry): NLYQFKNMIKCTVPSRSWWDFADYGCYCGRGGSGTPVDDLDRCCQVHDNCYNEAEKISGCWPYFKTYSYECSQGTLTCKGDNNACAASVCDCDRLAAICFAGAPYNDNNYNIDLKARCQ
Chain of Acidic phospholipase A2 2 (Naja naja) (P15445 whole entry): as above

Work on `C[C@@H]1O[C@@H](O[C@H]2[C@H](OC(=O)[C@]34CCC(C)(C)C[C@H]3C3=CC[C@@H]5[C@@]6(C)C[C@H](O)[C@H](O[C@@H]7O[C@H](C(=O)O)[C@@H](O)[C@H](O)[C@H]7O)[C@@](C)(C(=O)O)[C@@H]6CC[C@@]5(C)[C@]3(C)C[C@H]4O)O[C@@H](C)[C@H](O)[C@H]2O)[C@H](O[C@@H]2OC[C@@H](O)[C@H](O)[C@H]2O)[C@H](O)[C@H]1O` [ZANHASAPONIN B] yielded an IC50 [1] of 440 µM.
With `C[C@@H]1C[C@H]2[C@@H]3CCC4=CC(=O)C=C[C@]4(C)[C@@]3(F)[C@@H](O)C[C@]2(C)[C@@]1(O)C(=O)CO` [DEXAMETHASONE] the Activity [2] was 81%, the Activity [3] was 76% and the Activity [4] was 81%. For the same compound, the Activity [5] was 84%, the Activity [6] was 89% and the Activity [7] was 93%.
`CC(Cc1ccc(O)c(O)c1)C(C)Cc1ccc(O)c(O)c1` (configuration not stated) [NORDIHYDROGUAIARETIC ACID] was tested, and the Activity [8] was 50%.
Work on `C[C@@H]1O[C@@H](O[C@H]2[C@H](OC(=O)[C@]34CCC(C)(C)C[C@H]3C3=CC[C@@H]5[C@@]6(C)C[C@H](O)[C@H](O[C@@H]7O[C@H](C(=O)O)[C@@H](O)[C@H](O)[C@H]7O)[C@@](C)(C(=O)O)[C@@H]6CC[C@@]5(C)[C@]3(C)C[C@H]4O)O[C@@H](C)[C@H](O)[C@H]2O)[C@H](O[C@@H]2OC[C@@H](O)[C@H](O[C@@H]3OC[C@@H](O)[C@H](O)[C@H]3O)[C@H]2O)[C@H](O)[C@H]1O` yielded an inhibition [9] of 30%.
In the case of `CO[C@H]1[C@H](O)[C@@H](O)[C@@H](O)[C@H](O)[C@@H]1O` [METHYLINOSITOL], the IC50 [1] is reported as 1920 µM.
Work on `CO[C@H]1[C@H](O)[C@@H](O)[C@H](O)[C@H](O)[C@H]1O` yielded an inhibition [10] of 45%.
`C[C@@H]1O[C@@H](O[C@H]2[C@H](OC(=O)[C@]34CCC(C)(C)C[C@H]3C3=CC[C@@H]5[C@@]6(C)C[C@H](O)[C@H](O[C@@H]7O[C@H](C(=O)O)[C@@H](O)[C@H](O)[C@H]7O)[C@@](C)(C(=O)O)[C@@H]6CC[C@@]5(C)[C@]3(C)C[C@H]4O)O[C@@H](C)[C@H](O)[C@H]2O)[C@H](O)[C@H](O)[C@H]1O` [ZANHASAPONIN A] showed an IC50 [1] of 470 µM.
